Data published in ChEMBL document CHEMBL6074649, “An insight into recent developments in imidazole based heterocyclic compounds as anticancer agents: Synthesis, SARs, and mechanism of actions” (Eur J Med Chem, 2024).
Converted amounts (≈) assume the structure as drawn.

What was measured:
MCF7 [1] = assay: Cytotoxicity against human MCF7 cells assessed as reduction in cell growth incubated for 24 hrs by SRB assay; format: functional, cell-based; details: MCF7, 24 h
HepG2 [2] = assay: Cytotoxicity against human HepG2 cells assessed as reduction in cell growth incubated for 24 hrs by SRB assay; format: functional, cell-based; details: HepG2, 24 h
MCF7 [3] = assay: Cytotoxicity against human MCF7 cells assessed as reduction in cell viability by MTT assay; format: functional, cell-based
A549 [4] = assay: Cytotoxicity against human A549 cells assessed as reduction in cell viability by MTT assay; format: functional, cell-based
COLO 205 = assay: Cytotoxicity against human COLO 205 cells assessed as reduction in cell viability by MTT assay; format: functional, cell-based
A2780 = assay: Cytotoxicity against human A2780 cells assessed as reduction in cell viability by MTT assay; format: functional, cell-based
K562 = assay: Antiproliferative activity against human K562 cells assessed as reduction in cell growth incubated for 48 hrs by MTT assay; format: functional, cell-based; details: K562, 48 h
A549 [5] = assay: Antiproliferative activity against human A549 cells assessed as reduction in cell viability incubated for 48 hrs by CCK-8 assay; format: functional, cell-based; details: A549, 48 h
U-251 = assay: Antiproliferative activity against human U-251 cells assessed as reduction in cell viability incubated for 48 hrs by CCK-8 assay; format: functional, cell-based; details: U-251, 48 h
HepG2 [6] = assay: Antiproliferative activity against human HepG2 cells assessed as reduction in cell viability incubated for 48 hrs by CCK-8 assay; format: functional, cell-based; details: HepG2, 48 h
HepG2 [7] = assay: Cytotoxicity against human HepG2 cells assessed as reduction in cell growth incubated for 24 hrs by MTT assay; format: functional, cell-based; details: HepG2, 24 h
MCF7 [8] = assay: Cytotoxicity against human MCF7 cells assessed as reduction in cell growth measured for 24 hrs by MTT assay; format: functional, cell-based; details: MCF7, 24 h
Caco-2 = assay: Cytotoxicity against human Caco-2 cells assessed as reduction in cell growth measured for 24 hrs by MTT assay; format: functional, cell-based; details: Caco-2, 24 h
MDA-MB-231 = assay: Antiproliferative activity against human MDA-MB-231 cells assessed as reduction in cell growth by MTT assay; format: functional, cell-based
[9] = Antiproliferative activity against human MCF-10A cells assessed as reduction in cell growth by MTT assay; format: toxicity, cell-based
[10] = Antiproliferative activity against human HepG2 cells assessed as reduction in cell growth by MTT assay; format: toxicity, cell-based
L02 = assay: Antiproliferative activity against human LO2 cells assessed as reduction in cell growth by MTT assay; format: functional, cell-based
HeLa = assay: Antiproliferative activity against human HeLa cells assessed as reduction in cell growth incubated for 48 hrs by MTT assay; format: functional, cell-based
MCF7 [11] = assay: Anticancer activity against human MCF7 cells at 1.5 uM relative to control; format: functional
MCF7 [12] = assay: Anticancer activity against human MCF7 cells at 1.9 uM relative to control; format: functional
MCF7 [13] = assay: Anticancer activity against human MCF7 cells at 3.9 uM relative to control; format: functional
MCF7 [14] = assay: Anticancer activity against human MCF7 cells at 7.8 uM relative to control; format: functional
MCF7 [15] = assay: Anticancer activity against human MCF7 cells at 15.6 uM relative to control; format: functional
MCF7 [16] = assay: Anticancer activity against human MCF7 cells at 31.25 uM relative to control; format: functional
MCF7 [17] = assay: Anticancer activity against human MCF7 cells at 62.5 uM relative to control; format: functional
MCF7 [18] = assay: Anticancer activity against human MCF7 cells at 125 uM relative to control; format: functional
MCF7 [19] = assay: Anticancer activity against human MCF7 cells at 500 uM relative to control; format: functional
AGS = assay: Antiproliferative activity against human AGS cells assessed as reduction in cell viability incubated for 24 hrs by MTT assay; format: functional, cell-based
A549 [20] = assay: Antiproliferative activity against human A549 cells assessed as reduction in cell viability incubated for 24 hrs by MTT assay; format: functional, cell-based; details: A549, 24 h
[21] = Antiproliferative activity against human MRC5 cells assessed as reduction in cell viability incubated for 24 hrs by MTT assay; format: toxicity, cell-based
Leukemia cell = assay: Growth inhibition of human Leukemia cell; format: functional

CC[C@]1(O)C[C@@H]2CN(CCc3c([nH]c4ccccc34)[C@@](C(=O)OC)(c3cc4c(cc3OC)N(C)[C@H]3[C@@](O)(C(=O)OC)[C@H](OC(C)=O)[C@]5(CC)C=CCN6CC[C@]43[C@@H]65)C2)C1.O=S(=O)(O)O [VINBLASTINE SULFATE]
IC50 (MCF7 [1]): 5.7 µg/mL | IC50 (HepG2 [2]): 4.6 µg/mL

O=[N+]([O-])c1cccc(S(=O)(=O)n2ccnc2-c2ccon2)c1
IC50 (MCF7 [3]): 1.03 µM | IC50 (A549 [4]): 1.14 µM | IC50 (COLO 205): 1.9 µM | IC50 (A2780): 0.63 µM

COc1cc([C@@H]2c3cc4c(cc3[C@@H](n3cnc([N+](=O)[O-])c3)[C@H]3COC(=O)[C@H]23)OCO4)cc(OC)c1O
IC50 (K562): 7.43 µM

O=C(OCCn1c([N+](=O)[O-])cnc1/C=C/c1ccc2ccccc2c1)c1nccc2ccccc12
IC50 (A549 [5]): 0.32 µM | IC50 (U-251): 0.1 µM | IC50 (HepG2 [6]): 0.11 µM

c1coc(-c2nc(-c3ccc(OCCCOc4ccc(-c5nc(-c6ccco6)c(-c6ccco6)[nH]5)cc4)cc3)[nH]c2-c2ccoc2)c1
IC50 (HepG2 [7]): 8.14 µM | IC50 (MCF7 [8]): 59.2 µM | IC50 (Caco-2): 327 µM

Cc1nc(S)n(-c2ccccc2)c1-c1cc(-c2ccc(-c3cc(-c4c(C)nc(S)n4-c4ccccc4)nc(N)c3C#N)cc2)c(C#N)c(N)n1
IC50 (MCF7 [1]): 1.7 µg/mL (≈ 2.47 µM) | IC50 (HepG2 [2]): 6 µg/mL (≈ 8.71 µM)

Clc1ncccc1-c1nc(-c2ccccc2)c(-c2ccccc2)[nH]1
IC50 (MDA-MB-231): 24.1 µM | IC50 [9]: > 50 µM | IC50 [10]: 19.7 µM | IC50 (L02): > 50 µM

Brc1ccc(-c2nc(-c3ccccc3)c(-c3ccccc3)[nH]2)cn1
IC50 (MDA-MB-231): 17.8 µM | IC50 [9]: 36.8 µM | IC50 [10]: 26.7 µM | IC50 (L02): 22 µM

COc1cc([C@@H]2c3cc4c(cc3[C@H](n3cnc(C)c3)[C@H]3COC(=O)[C@H]23)OCO4)cc(OC)c1OC
IC50 (K562): 8.8 µM | IC50 (HeLa): 4.48 µM

c1ccc(-c2nc(-c3ccc(OCc4c(COc5ccc(-c6nc(-c7ccccc7)c(-c7ccccc7)[nH]6)cc5)c(COc5ccc(-c6nc(-c7ccccc7)c(-c7ccccc7)[nH]6)cc5)c(COc5ccc(-c6nc(-c7ccccc7)c(-c7ccccc7)[nH]6)cc5)c(COc5ccc(-c6nc(-c7ccccc7)c(-c7ccccc7)[nH]6)cc5)c4COc4ccc(-c5nc(-c6ccccc6)c(-c6ccccc6)[nH]5)cc4)cc3)[nH]c2-c2ccccc2)cc1
IC50 (HepG2 [7]): 9.77 µM | IC50 (MCF7 [8]): 35.4 µM | IC50 (Caco-2): 32.5 µM

COc1ccc(-c2nc(-c3ccccc3)c(-c3ccccc3)n2Cc2ccc(F)cc2)cc1
inhibition at 1.5 µM (MCF7 [11]): 82% | inhibition at 1.9 µM (MCF7 [12]): 88% | inhibition at 3.9 µM (MCF7 [13]): 79% | inhibition at 7.8 µM (MCF7 [14]): 73% | inhibition at 15.6 µM (MCF7 [15]): 65% | inhibition at 31.25 µM (MCF7 [16]): 54% | inhibition at 62.5 µM (MCF7 [17]): 41% | inhibition at 125 µM (MCF7 [18]): 39% | inhibition at 500 µM (MCF7 [19]): 13%

Cn1ccnc1/C=C/C(=O)c1ccc(F)cc1
IC50 (AGS): 29.3 µM | IC50 (A549 [20]): > 100 µM | IC50 at 24 h [21]: > 100 µM

Cc1ccc(-c2nc(-c3ccccc3)c(-c3ccccc3)n2Cc2ccc(F)cc2)cc1
inhibition at 1.5 µM (MCF7 [11]): 90% | inhibition at 1.9 µM (MCF7 [12]): 87% | inhibition at 3.9 µM (MCF7 [13]): 72% | inhibition at 7.8 µM (MCF7 [14]): 66% | inhibition at 15.6 µM (MCF7 [15]): 53% | inhibition at 31.25 µM (MCF7 [16]): 47% | inhibition at 62.5 µM (MCF7 [17]): 38% | inhibition at 125 µM (MCF7 [18]): 29% | inhibition at 500 µM (MCF7 [19]): 15%

COc1ccc(C(=O)/C=C/c2nc3ccccc3n2C)cc1
IC50 (AGS): 15.1 µM | IC50 (A549 [20]): 68.1 µM | IC50 at 24 h [21]: 45.9 µM

COc1cc([C@@H]2c3cc4c(cc3[C@@H](O[C@@H]3O[C@@H]5CO[C@@H](C)O[C@H]5[C@H](O)[C@H]3O)[C@H]3COC(=O)[C@H]23)OCO4)cc(OC)c1O [ETOPOSIDE]
IC50 (MCF7 [3]): 2.11 µM | IC50 (COLO 205): 0.13 µM | IC50 (A2780): 1.31 µM | IC50 (K562): 6 µM | IC50 (HeLa): 2.99 µM

Cc1nc(S)n(-c2ccccc2)c1-c1cc(-c2ccccc2O)c(C#N)c(=O)[nH]1
IC50 (MCF7 [1]): 2 µg/mL (≈ 4.99 µM) | IC50 (HepG2 [2]): 3 µg/mL (≈ 7.49 µM)

COc1cc([C@@H]2c3cc4c(cc3[C@@H](n3ccnc3)[C@H]3COC(=O)[C@H]23)OCO4)cc(OC)c1OC
IC50 (K562): 2.88 µM | IC50 (HeLa): 5.22 µM

Cc1nc(SCC(=O)Nc2nc(-c3ccc(Cl)cc3)cs2)n(Nc2ccccc2)c1C
GI50 (Leukemia cell): 3.08 µM
